Patent EP0462066A1, “Amorphous gemfibrozil” (WARNER-LAMBERT COMPANY, priority 1990, dated 1991)
In brackets after ≈: the same amount, converted by molar mass.

Test: Dissolution / solubility in water over time, crystalline material compared with solid dispersion
Assay type: physicochemical

- solubility at 1 h (Time: One hour): 14.7 µg/mL (≈ 58.8 µM)
- solubility at 20 h (Time: Twenty Hours): 21.3 µg/mL (≈ 85.1 µM)
- solubility at 24 h (Time: Twenty-four Hours): 22.4 µg/mL (≈ 89.5 µM)
- solubility at 2 h (Time: Two Hours): 18.4 µg/mL (≈ 73.6 µM)
SMILES: Cc1ccc(C)c(OCCCC(C)(C)C(=O)O)c1 [Crystalline, 5-(2,5-dimethylphenoxy)-2,2-dimethylpentanoic acid]
